In article PMC12921516 (ACS Bio & Med Chem Au, 2025):
“Also recorded” adds a separate entry of the source.

Tests used:
hPTP1B1–285 = target: T1, hPTP1B1–285 (Homo sapiens, UniProt P18031); assay: PTP1B inhibition, pNPP hydrolysis, short form; assay type: biochemical; settings: pNPP substrate; ± S.D
T1 construct: h PTP1B 1–285 IC 50 (μM ± S.D); made in house
T1 sequence (P18031 1-285): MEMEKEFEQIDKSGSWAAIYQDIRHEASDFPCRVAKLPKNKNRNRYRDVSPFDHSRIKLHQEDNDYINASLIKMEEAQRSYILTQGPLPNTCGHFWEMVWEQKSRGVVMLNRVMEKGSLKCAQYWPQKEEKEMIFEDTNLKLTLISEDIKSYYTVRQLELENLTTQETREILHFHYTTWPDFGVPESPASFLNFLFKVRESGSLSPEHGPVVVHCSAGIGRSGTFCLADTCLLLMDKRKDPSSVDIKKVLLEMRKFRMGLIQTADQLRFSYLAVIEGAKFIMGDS
Method: In contrast to analogous regions in other PTP family proteins, the intrinsically disordered C-terminal domain of PTP1B (residues 301–400) contains two α-helices, α8′ (residues 320–327) and α9′ (residues 360–377), which may act as binding sites for various compounds.
Aliquots of 0–10 μL of the test compounds (triplicate) were taken and incubated for 15 min at 37 °C with 85 μL of Tris buffer solution (50 mM, pH 6.8) containing PTP1B enzyme and 5 μL of p-nitrophenyl phosphate substrate (pNPP, 10 mM). The absorbance of the hydrolysis product, p-nitrophenol (pNP), was measured at 405 nm using a 96-microplate absorbance reader (Accuris SmartReader 96). The inhibitory activity was determined according to eq . %enzyme=(A405b/A405c)×100 1 Where: % enzyme is the percentage of inhibition for PTP1B or TCPTP
The IC50 was calculated using regression analysis, eq : %inhibition=A100/1+(I/IC50)^s 2 Where: A100: Maximum inhibition

[1] = Cytotoxicity, Sulforhodamine B assay; assay type: cell-based, human; settings: human, HFF-1 normal foreskin fibroblast cells; HFF-1 proliferation, 48-h incubation, 0.78 μM to 100 μM
Method: Given the significance of a drug candidate’s toxicity in relation to its inhibition potential, a cytotoxicity assay was conducted using Normal Human Foreskin Fibroblasts (HFF-1).
All assays were carried out in triplicate. Cell proliferation was determined by the Sulforhodamine B assay, and the half-maximal cytotoxic concentration (CC50) was determined by Probit analysis.

hPTP1B1–400 = target: T2, hPTP1B1–400 (Homo sapiens, UniProt P18031); assay: PTP1B inhibition, pNPP hydrolysis, long form; assay type: biochemical; settings: pNPP substrate, 15 min 37 °C, pH 6.8; ± S.D
T2 construct: h PTP1B 1–400 IC 50 (μM ± S.D); made in house
T2 sequence (P18031 1-400): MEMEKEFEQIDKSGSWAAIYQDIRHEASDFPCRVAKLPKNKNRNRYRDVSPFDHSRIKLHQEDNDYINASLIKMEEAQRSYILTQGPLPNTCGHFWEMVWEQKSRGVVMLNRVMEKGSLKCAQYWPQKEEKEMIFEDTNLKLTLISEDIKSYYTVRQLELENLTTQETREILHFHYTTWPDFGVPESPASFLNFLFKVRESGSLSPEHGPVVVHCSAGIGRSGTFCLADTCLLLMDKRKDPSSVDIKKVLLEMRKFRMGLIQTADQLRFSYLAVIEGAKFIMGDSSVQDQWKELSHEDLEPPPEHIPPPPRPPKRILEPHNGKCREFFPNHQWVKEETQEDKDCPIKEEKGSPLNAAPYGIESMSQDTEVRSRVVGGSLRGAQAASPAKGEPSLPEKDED

[2] = test system: STZ-induced diabetic CD-1 mice; assay: Insulin tolerance test (ITT); assay type: in vivo; settings: for glycemia variation in ITT: single intragastric dose 50 mg/kg, insulin 0.75 IU after 30 min
Method: The studies were carried out on compounds 4b, 4g, and 5g using both normoglycemic CD1 mice and a mouse model of noninsulin-dependent diabetes mellitus (NIDDM). An oral glucose tolerance test (OGTT) was conducted on the normoglycemic mice to evaluate the hypoglycemic activity of the compounds, while an insulin tolerance test (ITT) was performed on hyperglycemic CD1 mice to assess the compounds' capacity to enhance insulin sensitivity in streptozotocin-induced diabetic mice. Pioglitazone and GA were included as positive controls. […] Healthy six-week-old male CD-1 mice, weighing between 30 and 40 g, were maintained at a temperature of 25 ± 2 °C, under a 12-h light/dark cycle and 45-65% humidity throughout the experimental period. The mice were provided with a rodent pelleted diet (Harlan Laboratories, Indianapolis, USA) and had access to water ad libitum. Sixteen hours before the experiment, all mice were fasted but still had free access to water. All animal procedures were conducted in accordance with the Mexican Federal Regulations for Animal Experimentation and Care (SAGARPA, NOM-062-ZOO-1999, Mexico) and received approval from the Institutional Animal Care and Use Committee, following guidelines outlined in the US National Institutes of Health publication (No. 85-23, revised 1985). Streptozotocin (STZ) was dissolved in citrate buffer (pH 4.5), while nicotinamide was dissolved in a normal physiological saline solution. The noninsulin-dependent diabetes (NIDD) mouse model was induced in overnight-fasted mice through a single intraperitoneal injection of STZ (100 mg/kg). Nicotinamide was administered 15 min prior, at a dose of 20 mg/kg via intraperitoneal injection. […] Roche). […] Animals were categorized into five groups, each consisting of four mice (n = 4). The experimental groups received an oral suspension of compounds 4b, 4g, and 5g, prepared in a 10% Tween 20/water solution, at a dosage of 50 mg/kg body weight. A control group was treated with only the 10% Tween 20 solution. The final group was administered pioglitazone at a dose of 45 mg/kg, which is recognized as a reference drug for insulin sensitization. To evaluate glucose levels, blood samples were collected from the tails of the mice at 0, 30, 60, 90, and 120 min after the administration of the vehicle, test compound, or drug. Blood glucose concentration was measured using a commercial glucometer (Accu-Chek, Performa; Roche) and the enzymatic glucose dehydrogenase method. The percentage variation in glycemia was calculated by comparing the selected postadministration glycemia (G x ) with the initial value (G0) using the following formula: %[…]=[(Gx-G0)/G0]×100 where G0 represents the initial glycemia values and Gx indicates the glycemia values at +30, + 60, + 90, and +120 min, respectively. To evaluate the ability of GA derivatives to enhance insulin sensitivity in STZ-induced diabetic CD-1 mice, compounds 4b, 4g, and 5g were tested. Glycyrrhetinic acid (GA) and Pioglitazone served as positive controls. The GA derivatives and the positive controls were administered to the diabetic animals, followed by the administration of human rapid-acting insulin (0.75 IU) after 30 min. Subsequently, glucose levels were measured every 15 min.

Row | Structure (SMILES) | IC50 (hPTP1B1–285) [µM] | CC50 at 48 h [1] [µM] | IC50 (hPTP1B1–400) [µM] | ITT activity compared to GA ([2]; 50 mg/kg) | glycemia variation in ITT ([2]; 50 mg/kg) | glycemia variation in ITT [2] | ITT activity compared to pioglitazone ([2]; 50 mg/kg vs pioglitazone 45 mg/kg) | glycemic variation in ITT compared with normoglycemic mice ([2]; 50 mg/kg, after the 45th minute)
1 | CC1(C)c2[nH]c3ccc(OC(F)F)cc3c2C[C@]2(C)[C@H]3C(=O)C=C4[C@@H]5C[C@@](C)(C(=O)O)CC[C@]5(C)CC[C@@]4(C)[C@]3(C)CC[C@@H]12 [compound 4b, (20β)-5′-(Difluoromethoxy)-11-oxo-1′H-oleana-2,12-dieno[3,2-b]indol-29-oic Acid] | 7.03 ± 0.28 | 98.7 ± 2 | 1.58 ± 0.07 | greater potency than GA | significantly reduced glucose levels; also recorded: reduce glycemia variation starting from the 15th minute | – | – | –
2 | CC1(C)c2[nH]c3ccc(S(N)(=O)=O)cc3c2C[C@]2(C)[C@H]3C(=O)C=C4[C@@H]5C[C@@](C)(C(=O)O)CC[C@]5(C)CC[C@@]4(C)[C@]3(C)CC[C@@H]12 [compound 4g, (20β)-5′-Sulfamoyl-11-oxo-1′H-oleana-2,12-dieno[3,2-b]indol-29-oic Acid] | 9.11 ± 0.58 | > 100 | 2.06 ± 0.12 | – | – | reduce glycemia variation starting from the 15th minute | – | –
3 | CC1(C)c2c(cnn2-c2ccc(S(N)(=O)=O)cc2)C[C@]2(C)[C@H]3C(=O)C=C4[C@@H]5C[C@@](C)(C(=O)O)CC[C@]5(C)CC[C@@]4(C)[C@]3(C)CC[C@@H]12 [compound 5g, (20β)-11-Oxo-2′-(4-sulfamoylphenyl)-2′H-oleana-2,12-dieno[3,2-c]pyrazol-29-oic Acid] | 5.51 ± 0.16 | > 100 | 1.48 ± 0.18 | greater potency than GA | significantly reduced glucose levels; also recorded: reduce glycemia variation starting from the 15th minute | – | superior activity compared to pioglitazone | no significant differences in glycemic variation
